Results: PubChem BioAssay AID1996
Values after ≈ are worked out from the molar mass of the structure shown.

Conditions: buffer; pH 7.4; 200.0 µM

Row | SMILES | solubility kinetic [µg/mL]
1 | CC(=Nc1ccc2c(c1)CCC2)c1c(O)n(-c2ccccc2)c(=O)[nH]c1=O | < 0.3
2 | O=C(Cc1ccc(Br)cc1)Nc1nc2ccccc2[nH]1 | 2.4 (≈ 7.27 µM)
3 | O=Cc1ccc(C(=O)OCC(=O)NC(=O)Nc2ccccc2F)cc1 | 28.9 (≈ 83.9 µM)
4 | Cc1nc2ccc(NC(=O)c3ccc(=O)[nH]c3)cc2s1 | 13.7 (≈ 48 µM)
5 | COc1ccc(NC(=S)Nc2cccc3cnccc23)cc1 | 9.9 (≈ 32 µM)
6 | COC(=O)[C@H](CCSC)NC(=O)NC1CC1 | > 36.9
7 | C=CCOc1ccc(/C=C/C(=O)OCC(=O)NC2CCCCCCC2)cc1 | < 0.8
8 | COc1cccc2cc(-c3ccnc(N)n3)oc12 | 2.6 (≈ 10.8 µM)
9 | CCCCNc1nc2cccnc2s1 | 30.4 (≈ 147 µM)
10 | O=C(c1c(F)cccc1F)N1CCCc2ccccc21 | > 41
11 | O=C1COc2ccc(C(=O)COC(=O)c3ccccc3F)cc2N1 | 10.1 (≈ 30.7 µM)
12 | CN(C)c1cc(-c2ccc(Cl)c(Cl)c2)oc(=O)c1Cl | 0.7 (≈ 2.2 µM)
13 | Cc1ccccc1-n1c(=O)n(CCc2ccccc2)c(=O)c2[nH]cnc21 | 10.8 (≈ 31.2 µM)
14 | Cc1cc(C)n(CC(=O)Nc2ccc3c(c2)OCO3)c(=O)c1C#N | 8.4 (≈ 25.8 µM)
15 | O=C1CSC(c2ccccc2)N1CCc1ccccc1 (stereo unspecified) | 29.6 (≈ 104 µM)
16 | Cc1ccc(N2CC(c3nc4ccccc4n3C)CC2=O)cc1 (stereo unspecified) | > 45.8
17 | N#C/C(=C\c1ccc([N+](=O)[O-])cc1)c1ccccn1 | 4.7 (≈ 18.7 µM)
18 | Cn1c(CNC(=O)C2CCCCC2)cc2cc(Cl)ccc21 | < 0.3
19 | COC(=O)C(C(=O)OC)c1ncc(C(F)(F)F)cc1Cl | 41.1 (≈ 132 µM)
20 | CC1CCCN(C2(O)C(=O)Nc3ccc(Cl)cc32)C1 (stereo unspecified) | > 42.1
21 | O=C(COC(=O)c1ccc(Cl)nc1)NCCc1ccc(Cl)cc1 | 21.4 (≈ 60.6 µM)

Row | SMILES | solubility kinetic [µg/mL]
22 | O=C(Cc1csc(-c2ccccc2)n1)NCc1cccs1 | 15.6 (≈ 49.6 µM)
23 | CCN(CC(=O)N1CCCCC1)S(=O)(=O)c1ccccc1 | 42.4 (≈ 137 µM)
24 | O=C(/C=C\N1CCOCC1)c1ccc(Br)cc1 | > 44.4
25 | Cc1cccc(OCC(=O)OCC(=O)Nc2ccc(Cl)cn2)c1 | 32.5 (≈ 97.1 µM)
26 | O=C(NCCc1ccc(Cl)cc1)c1cnccn1 | > 39.3
27 | O=C(CNc1ccccc1Cl)c1ccc(Br)cc1 | < 0.7
28 | CCOc1ccc(N2C(=O)CC(Sc3nc(O)c(CC)c(=O)[nH]3)C2=O)cc1 (stereo unspecified) | > 58.4
29 | Cn1cc(/C=C/C(=O)c2ccccc2)c2ccccc21 | 0.7 (≈ 2.68 µM)
30 | OC(COc1ccc(Cl)cc1Cl)Cn1ccnc1 (stereo unspecified) | 39.6 (≈ 138 µM)
31 | Cc1ccc(/C=C/C(=O)NCc2cccs2)c(C)c1 | < 0.6
32 | CCC(NC(=S)NCc1ccc(F)cc1)c1ccccc1 (stereo unspecified) | 3.4 (≈ 11.2 µM)
33 | COc1ccc(C(=O)NCCSc2ccccc2C)cc1 | 23.7 (≈ 78.6 µM)
34 | N#Cc1ccccc1NC(=O)COc1ccc2c(c1)OCO2 | 17.1 (≈ 57.7 µM)
35 | CSc1cccc(NC(=S)NCCCO)c1 | 37.3 (≈ 145 µM)
36 | CN(Cc1ccccc1)C(=O)COC(=O)CCC(=O)c1ccc(Cl)cc1 | 9.6 (≈ 25.7 µM)
37 | Cn1cnnc1SCC(=O)Nc1ccc(F)cc1 | > 39.9
38 | O=C(NCC(c1ccco1)N1CCc2ccccc2C1)c1cccc(F)c1 (stereo unspecified) | 28.7 (≈ 78.8 µM)
39 | C[N+]1(CCOC(=O)C2(c3ccccc3)CCCC2)CCCCC1 | > 47.5
40 | Cc1nc2ccccc2c(=O)n1-c1cc(F)ccc1F | > 40.8
41 | Cc1cc(C)cc(NC(=O)N(CCC#N)Cc2cccs2)c1 | 4.8 (≈ 15.3 µM)
42 | O=C1CN(S(=O)(=O)c2ccccc2)CCN1 | > 36

Row | SMILES | solubility kinetic [µg/mL]
43 | CCn1cnc2cc(NCc3ccccc3Cl)ccc21 | > 42.9
44 | CC(C)CCn1c2ccccc2c2cc(CC(N)=O)ccc21 | 0.4 (≈ 1.36 µM)
45 | COCCNC(=O)c1ccccc1NC(=O)CSc1ccc(C)cc1 | 36.6 (≈ 102 µM)
46 | CCN(CC(=O)Nc1c(F)cccc1F)C(=O)c1ccccn1 | > 47.9
47 | CN1CCN(c2ccccc2NC(=O)c2ccccc2F)CC1 | > 47
48 | CC(C)C(=O)Nc1cc2c3c(c1)CCN3C(=O)CC2 | 38.7 (≈ 150 µM)
49 | Cn1cccc1CNC(=S)Nc1ccccc1F | > 39.5
50 | COc1ccc(Oc2nc(-c3cccnc3)nc3ccccc23)cc1 | < 0.2
51 | Cl.NCc1ccc2[nH]c(=O)[nH]c2c1 | > 29.9
52 | Cc1cccc(-c2noc(CNC(=O)c3ccc4c(c3)OCO4)n2)c1 | 2.3 (≈ 6.82 µM)
53 | Cc1cccc(-n2c(C)nc3ccsc3c2=O)c1 | 35.8 (≈ 140 µM)
54 | COc1ccc2oc(=O)c(C(=O)NCc3ccc(F)cc3)cc2c1 | 0.8 (≈ 2.44 µM)
55 | O=C(Nc1ccc(F)cc1F)NC1CCCCCCC1 | 1.9 (≈ 6.73 µM)
56 | Cc1noc(C)c1C(=O)NCCc1ccc(S(N)(=O)=O)cc1 | > 48.5
57 | COc1ccccc1C(=O)Nc1nc(C)cc(C)n1 | 31.7 (≈ 123 µM)
58 | CCn1c(=O)c2cc(C(=O)NCCN(C)C)sc2c2ccccc21 | 51.5 (≈ 150 µM)
59 | Cc1cccc(OCCC(=O)Nc2ccccc2C(N)=O)c1 | 44.2 (≈ 148 µM)
60 | CC(=O)c1ccc(OCCCC(=O)NC2CCCCC2C)cc1 (stereo unspecified) | 25.8 (≈ 81.3 µM)
61 | O=C(NC1(C(F)(F)F)N=C2SCCN2C1=O)c1ccccc1F (stereo unspecified) | 50.5 (≈ 145 µM)
